Reference: ChEMBL document CHEMBL1671673, “In vitro activity of colistin (polymyxin E) against 3,480 isolates of gram-negative bacilli obtained from patients in Canadian hospitals in the CANWARD study, 2007-2008” (Antimicrob Agents Chemother, 2009)

Key:
Assay type in all cases: functional, organism-based
[1] = tested on: Pseudomonas aeruginosa; assay: Antibacterial activity against Levofloxacin-resistant Pseudomonas aeruginosa assessed as susceptible isolates at minimum inhibitory concentration of 2 ug/ml by CLSI broth microdilution method; design: scale not given: the % may be the effect or the level left
[2] = tested on: Pseudomonas aeruginosa; assay: Antibacterial activity against Levofloxacin-resistant Pseudomonas aeruginosa assessed as susceptible isolates at minimum inhibitory concentration of 4 ug/ml by CLSI broth microdilution method; design: scale not given: the % may be the effect or the level left
[3] = tested on: Pseudomonas aeruginosa; assay: Antibacterial activity against Levofloxacin-resistant Pseudomonas aeruginosa assessed as susceptible isolates at minimum inhibitory concentration of 16 ug/ml by CLSI broth microdilution method; design: scale not given: the % may be the effect or the level left
[4] = tested on: Pseudomonas aeruginosa; assay: Antibacterial activity against Meropenem-resistant Pseudomonas aeruginosa assessed as susceptible isolates at minimum inhibitory concentration of 0.5 ug/ml by CLSI broth microdilution method; design: scale not given: the % may be the effect or the level left
[5] = tested on: Pseudomonas aeruginosa; assay: Antibacterial activity against Meropenem-resistant Pseudomonas aeruginosa assessed as susceptible isolates at minimum inhibitory concentration of 4 ug/ml by CLSI broth microdilution method; design: scale not given: the % may be the effect or the level left
[6] = tested on: Pseudomonas aeruginosa; assay: Antibacterial activity against MDR4 Pseudomonas aeruginosa assessed as susceptible isolates at minimum inhibitory concentration of 0.5 ug/ml by CLSI broth microdilution method; design: scale not given: the % may be the effect or the level left
[7] = tested on: Pseudomonas aeruginosa; assay: Antibacterial activity against MDR Pseudomonas aeruginosa assessed as susceptible isolates at minimum inhibitory concentration of 1 ug/ml by CLSI broth microdilution method; design: scale not given: the % may be the effect or the level left
[8] = tested on: Pseudomonas aeruginosa; assay: Antibacterial activity against MDR Pseudomonas aeruginosa assessed as susceptible isolates at minimum inhibitory concentration of 2 ug/ml by CLSI broth microdilution method; design: scale not given: the % may be the effect or the level left
[9] = tested on: Pseudomonas aeruginosa; assay: Antibacterial activity against Pseudomonas aeruginosa assessed as resistant isolates at >=8 ug/ml by CLSI broth microdilution method
[10] = tested on: Pseudomonas aeruginosa; assay: Antibacterial activity against tazobactam-resistant Pseudomonas aeruginosa assessed as susceptible isolates at minimum inhibitory concentration of 0.5 ug/ml by CLSI broth microdilution method; design: scale not given: the % may be the effect or the level left
[11] = tested on: Pseudomonas aeruginosa; assay: Antibacterial activity against tazobactam-resistant Pseudomonas aeruginosa assessed as susceptible isolates at minimum inhibitory concentration of 2 ug/ml by CLSI broth microdilution method; design: scale not given: the % may be the effect or the level left
[12] = tested on: Serratia marcescens; assay: Antibacterial activity against Serratia marcescens assessed as susceptible isolates at minimum inhibitory concentration of 1 ug/ml by CLSI broth microdilution method; design: scale not given: the % may be the effect or the level left
[13] = tested on: Serratia marcescens; assay: Antibacterial activity against Serratia marcescens assessed as susceptible isolates at minimum inhibitory concentration of 0.12 ug/ml by CLSI broth microdilution method; design: scale not given: the % may be the effect or the level left
[14] = tested on: Proteus mirabilis; assay: Antibacterial activity against Proteus mirabilis assessed as susceptible isolates at minimum inhibitory concentration of >16 ug/ml by CLSI broth microdilution method; design: scale not given: the % may be the effect or the level left
[15] = tested on: Proteus mirabilis; assay: Antibacterial activity against Proteus mirabilis assessed as susceptible isolates at minimum inhibitory concentration of 0.25 ug/ml by CLSI broth microdilution method; design: scale not given: the % may be the effect or the level left
[16] = tested on: Enterobacter cloacae; assay: Antibacterial activity against Enterobacter cloacae assessed as susceptible isolates at minimum inhibitory concentration of 4 ug/ml by CLSI broth microdilution method; design: scale not given: the % may be the effect or the level left
[17] = tested on: Klebsiella pneumoniae; assay: Antibacterial activity against ESBL-producing Klebsiella pneumoniae assessed as susceptible isolates at minimum inhibitory concentration of 4 ug/ml by CLSI broth microdilution method; design: scale not given: the % may be the effect or the level left
[18] = tested on: Klebsiella pneumoniae; assay: Antibacterial activity against ESBL-producing Klebsiella pneumoniae assessed as susceptible isolates at minimum inhibitory concentration of 2 ug/ml by CLSI broth microdilution method; design: scale not given: the % may be the effect or the level left
[19] = tested on: Pseudomonas aeruginosa; assay: Antibacterial activity against Pseudomonas aeruginosa assessed as susceptible isolates at minimum inhibitory concentration of 16 ug/ml by CLSI broth microdilution method; design: scale not given: the % may be the effect or the level left
[20] = tested on: Pseudomonas aeruginosa; assay: Antibacterial activity against Pseudomonas aeruginosa assessed as susceptible isolates at minimum inhibitory concentration of 1 ug/ml by CLSI broth microdilution method; design: scale not given: the % may be the effect or the level left
[21] = tested on: Escherichia coli; assay: Antibacterial activity against ESBL-producing Escherichia coli assessed as susceptible isolates at minimum inhibitory concentration of 0.5 ug/ml by CLSI broth microdilution method; design: scale not given: the % may be the effect or the level left
[22] = tested on: Escherichia coli; assay: Antibacterial activity against ESBL-producing Escherichia coli assessed as susceptible isolates at minimum inhibitory concentration of 0.25 ug/ml by CLSI broth microdilution method; design: scale not given: the % may be the effect or the level left
[23] = tested on: Klebsiella oxytoca; assay: Antibacterial activity against Klebsiella oxytoca assessed as susceptible isolates at minimum inhibitory concentration of >16 ug/ml by CLSI broth microdilution method; design: scale not given: the % may be the effect or the level left
[24] = tested on: Stenotrophomonas maltophilia; assay: Antibacterial activity against Stenotrophomonas maltophilia assessed as susceptible isolates at minimum inhibitory concentration of 4 ug/ml by CLSI broth microdilution method; design: scale not given: the % may be the effect or the level left
[25] = tested on: Klebsiella aerogenes; assay: Antibacterial activity against Enterobacter aerogenes assessed as susceptible isolates at minimum inhibitory concentration of <=0.06 ug/ml by CLSI broth microdilution method; design: scale not given: the % may be the effect or the level left
[26] = tested on: Klebsiella aerogenes; assay: Antibacterial activity against Enterobacter aerogenes assessed as susceptible isolates at minimum inhibitory concentration of 0.12 ug/ml by CLSI broth microdilution method; design: scale not given: the % may be the effect or the level left
[27] = tested on: Klebsiella aerogenes; assay: Antibacterial activity against Enterobacter aerogenes assessed as susceptible isolates at minimum inhibitory concentration of 4 ug/ml by CLSI broth microdilution method; design: scale not given: the % may be the effect or the level left
[28] = tested on: Acinetobacter baumannii; assay: Antibacterial activity against Acinetobacter baumannii assessed as susceptible isolates at minimum inhibitory concentration of 2 ug/ml by CLSI broth microdilution method; design: scale not given: the % may be the effect or the level left
[29] = tested on: Acinetobacter baumannii; assay: Antibacterial activity against Acinetobacter baumannii assessed as susceptible isolates at minimum inhibitory concentration of 4 ug/ml by CLSI broth microdilution method; design: scale not given: the % may be the effect or the level left
[30] = tested on: Acinetobacter baumannii; assay: Antibacterial activity against Acinetobacter baumannii assessed as susceptible isolates at minimum inhibitory concentration of >16 ug/ml by CLSI broth microdilution method; design: scale not given: the % may be the effect or the level left
[31] = tested on: Pseudomonas aeruginosa; assay: Antibacterial activity against Amikacin-resistant Pseudomonas aeruginosa assessed as susceptible isolates at minimum inhibitory concentration of 4 ug/ml by CLSI broth microdilution method; design: scale not given: the % may be the effect or the level left
[32] = tested on: Pseudomonas aeruginosa; assay: Antibacterial activity against Amikacin-resistant Pseudomonas aeruginosa assessed as susceptible isolates at minimum inhibitory concentration of >16 ug/ml by CLSI broth microdilution method; design: scale not given: the % may be the effect or the level left
[33] = tested on: Pseudomonas aeruginosa; assay: Antibacterial activity against Cefepime-resistant Pseudomonas aeruginosa assessed as susceptible isolates at minimum inhibitory concentration of 2 ug/ml by CLSI broth microdilution method; design: scale not given: the % may be the effect or the level left
[34] = tested on: Pseudomonas aeruginosa; assay: Antibacterial activity against Ciprofloxacin-resistant Pseudomonas aeruginosa assessed as susceptible isolates at minimum inhibitory concentration of 2 ug/ml by CLSI broth microdilution method; design: scale not given: the % may be the effect or the level left
[35] = tested on: Pseudomonas aeruginosa; assay: Antibacterial activity against Ciprofloxacin-resistant Pseudomonas aeruginosa assessed as susceptible isolates at minimum inhibitory concentration of >16 ug/ml by CLSI broth microdilution method; design: scale not given: the % may be the effect or the level left
[36] = tested on: Klebsiella oxytoca; assay: Antibacterial activity against Klebsiella oxytoca assessed as susceptible isolates at minimum inhibitory concentration of 8 ug/ml by CLSI broth microdilution method; design: scale not given: the % may be the effect or the level left
[37] = tested on: Klebsiella oxytoca; assay: Antibacterial activity against Klebsiella oxytoca assessed as susceptible isolates at minimum inhibitory concentration of 4 ug/ml by CLSI broth microdilution method; design: scale not given: the % may be the effect or the level left
[38] = tested on: Klebsiella oxytoca; assay: Antibacterial activity against Klebsiella oxytoca assessed as susceptible isolates at minimum inhibitory concentration of 2 ug/ml by CLSI broth microdilution method; design: scale not given: the % may be the effect or the level left
[39] = tested on: Klebsiella oxytoca; assay: Antibacterial activity against Klebsiella oxytoca assessed as susceptible isolates at minimum inhibitory concentration of <=0.06 ug/ml by CLSI broth microdilution method; design: scale not given: the % may be the effect or the level left
[40] = tested on: Serratia marcescens; assay: Antibacterial activity against Serratia marcescens assessed as susceptible isolates at minimum inhibitory concentration of 8 ug/ml by CLSI broth microdilution method; design: scale not given: the % may be the effect or the level left

COLISTIN
Activity [1]: 92.2% | Activity [2]: 98.2% | Activity [3]: 98.2% | Activity [4]: 3.5% | Activity [5]: 100% | Activity [6]: 7.7% | Activity [7]: 38.2% | Activity [8]: 100% | Activity [9]: 1.1% | Activity [10]: 1.8% | Activity [11]: 92.9% | Activity [12]: 1.9% | Activity [13]: 0% | Activity [14]: 100% | Activity [15]: 0% | Activity [16]: 84.9% | Activity [17]: 97.7% | Activity [18]: 97.1% | Activity [19]: 99.1% | Activity [20]: 29.1% | Activity [21]: 82.4% | Activity [22]: 26.1% | Activity [23]: 100% | Activity [24]: 33.7% | Activity [25]: 0% | Activity [26]: 0% | Activity [27]: 100% | Activity [28]: 93.5% | Activity [29]: 93.5% | Activity [30]: 100% | Activity [31]: 97.4% | Activity [32]: 100% | Activity [33]: 97.3% | Activity [34]: 92.5% | Activity [35]: 100% | Activity [36]: 98.1% | Activity [37]: 97.2% | Activity [38]: 95.4% | Activity [39]: 0% | Activity [40]: 1.9%
